Experimental data reported in patent US5733913A, “6-Aryl pyrido[2,3-d] pyrimidines and naphthyridines for inhibiting protein tyrosine kinase mediated cellular proliferation” (priority 1995, dated 1998).
Read-outs that look alike come from different tables or passages of the source.

Assays:
[1] = molecular target: T1, human FGF-1 (flg) receptor tyrosine kinase (Homo sapiens, UniProt P11362); experiment: FGF receptor tyrosine kinase assay; type: biochemical; settings: read-out: Inhibition of Protein Tyrosine Kinases, FGF, IC50
T1 construct: a fragment of DNA that codes for the intracellular tyrosine kinase domain; made in house; host or cells: Sf9 insect cells (baculovirus), cell lysate
Summary of the method: (§1)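 Intracellular kinase domains expressed in baculovirus-infected SF9 cells; crude lysate used as enzyme. Inhibitor preincubated 10 min at 25 °C with lysate in pH 7.0 Hepes buffer with 10 mM MnCl2 and poly(Glu-Tyr) 4:1, then γ-32P-ATP (50 μM ATP) added for 10 min at 25 °C. TCA-precipitated 32P on filters counted, no-enzyme background subtracted.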

[2] = molecular target: T2, mouse PDGF-β receptor tyrosine kinase (Mus musculus, UniProt P05622); experiment: PDGF receptor tyrosine kinase assay; type: biochemical; settings: read-out: Inhibition of Protein Tyrosine Kinases, PDGF, IC50
T2 construct: a fragment of DNA that codes for the intracellular tyrosine kinase domain; made in house; host or cells: Sf9 insect cells (baculovirus), cell lysate
Summary of the method: as §1

[3] = molecular target: T3, C-src kinase (Homo sapiens, UniProt P12931); experiment: C-src kinase assay; type: biochemical; settings: read-out: Inhibition of Protein Tyrosine Kinases, C-src, IC50
T3 construct: made in house; host or cells: baculovirus-infected insect cells
Summary of the method: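 Baculovirus-expressed c-src immunopurified on antibody-coated latex beads, assayed in 40 mM Tris pH 7.5, 5 mM MgCl2 with poly GluTyr substrate and 5 μM ATP plus 32P-ATP. Reaction 10 min at room temperature, TCA-quenched, filtered; incorporated label counted by scintillation.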

[4] = test system: Streptococcus pneumoniae; experiment: standard in vitro assays of antibacterial activity; type: cell-based; settings: Gram+ bacterial strain
From the text: These compounds are potent inhibitors of one or more of the protein kinases, PDGF, FGF, EGF, V-src, and C-src. The invention compounds are thus useful in treating atherosclerosis, restenosis, and cancer. Specific tumors to be treated with the compounds include small-cell lung carcinoma such as that described in An. Rev. Respir. Dis., 142:554-556 (1990); human breast cancer as described in Cancer Research, 52:4773-4778 (1992); low grade human bladder carcinomas of the type described in Cancer Research, 52:1457-1462 (1992); human colorectal cancer as discussed in J. Clin. Invest., 91:53-60 (1993); and in J. Surg. Res., 54:293-294 (1993). The compounds also are useful as antibiotics against bacteria such as Streptococcus pneumoniae. […] The compounds additionally are useful as herbicides against a wide variety of undesirable plants such as broad leaf weeds and grasses.

[5] = test system: PDGF receptor; experiment: PDGF receptor autophosphorylation in RASMC; type: cell-based, rat; settings: PDGF-BB 30 ng/mL, read-out: Inhibition of PDGF Stimulated Receptor Auto Phosphorylation (IC50)
Method: Rat aorta smooth muscle cells (RASMC) were isolated from the thoracic aorta of rats and explanted according to the method of Ross, J. Cell. […] Cells were grown in Dulbecco's modified Eagle's medium (DMEM, Gibco) containing 10% fetal calf serum (FBS, Hyclone, Logan, Utah), 1% glutamine (Gibco) and 1% penicillin/streptomycin (Gibco). Cells were identified as smooth muscle cells by their "hill and valley" growth pattern and by fluorescent staining with a monoclonal antibody specific for SMC μ-actin (Sigma). RASMC were used between passages 5 and 20 for all experiments. Test compounds were prepared in dimethylsulfoxide (DMSO) in order to achieve consistency in the vehicle and to ensure compound solubility. Appropriate DMSO controls were simultaneously evaluated with the test compounds.
PDGF Receptor Autophosphorylation
RASMC were grown to confluency in 100 mm dishes. Growth medium was removed and replaced with serum-free medium and cells were incubated at 37° C. for an additional 24 hours. Test compounds were then added directly to the medium and cells incubated for an additional 2 hours. After 2 hours, PDGF-BB was added at a final concentration of 30 ng/mL for 5 minutes at 37° C. to stimulated autophosphorylation of the PDGF receptor. Following growth factor treatment, the medium was removed, and cells were washed with cold phosphate-buffered saline and immediately lysed with 1 mL of lysis buffer (50 mM HEPES[pH 7.5], 150 mM NaCl, 10% glycerol, 1% Triton X-100, 1 mM EDTA, 1 mMEGTA, 50 mM NaF, 1 mM sodium orthovanadate, 30 mM p-nitrophenyl phosphate, 10 mM sodium pyrophosphate, 1 mM phenylmethyl sulfonyl fluoride, 10 μg/mL aprotinin, and 10 μg/mL leupeptin). Lysates were centrifuged at 10,000×g for 10 minutes. […] Following the incubation, protein-A-sepharose beads were added for 2 hours with continuous mixing, and immune complexes bound to the beads washed 4 times with 1 mL lysis wash buffer. Immune complexes were solubilized in 30 μL of Laemmli sample buffer and electrophoresed in 4-20% SDS polyacrylamide gels. Following electrophoresis, separated proteins were transferred to nitrocellulose and immunoblotted with anti-phosphotyrosine antiserum. […] IC50 values were generated from the densitometric data.

[6] = test system: Rat aorta smooth muscle cells (RASMC); experiment: [3H]-Thymidine incorporation assay in RASMC; type: cell-based; settings: read-out: Inhibition of Growth Factor Stimulated Uptake of [3H]-thymidine (IC50)
Method: Cell Culture Rat aorta smooth muscle cells (RASMC) were isolated from the thoracic aorta of rats and explanted according to the method of Ross, J. Cell. Biol., 30:172-186 (1971). Cells were grown in Dulbecco's modified Eagle's medium (DMEM, Gibco) containing 10% fetal calf serum (FBS, Hyclone, Logan, Utah), 1% glutamine (Gibco) and 1% penicillin/streptomycin (Gibco). Cells were identified as smooth muscle cells by their "hill and valley" growth pattern and by fluorescent staining with a monoclonal antibody specific for SMC […] (Sigma). RASMC were used between passages 5 and 20 for all experiments. Test compounds were prepared in dimethylsulfoxide (DMSO) in order to achieve consistency in the vehicle and to ensure compound solubility. Appropriate DMSO controls were simultaneously evaluated with the test compounds. […] RASMC were plated into a 24-well plate (30,000 cells/well) in DMEM with 10% FBS. After 4 days, cells reached confluence and were made quiescent by incubation in DMEM/F12 medium (Gibco) containing 0.2% FBS for another 2 days. […] […] The acid-insoluble fraction was lysed in 0.75 mL 0.25N NaOH and the radioactivity determined by liquid scintillation counting. IC50 values were determined graphically.

[7] = molecular target: T4, Human EGF receptor tyrosine kinase (Homo sapiens, UniProt P00533); experiment: EGF receptor tyrosine kinase assay; type: biochemical; settings: read-out: Inhibition of Protein Tyrosine Kinases, EGF, IC50
T4 construct: isolated from A431 epidermoid carcinoma cells; endogenous in cells; host or cells: A431 epidermoid carcinoma cells (Triton lysate, wheat germ agglutinin eluate)
Method: Purification of Epidermal Growth Factor Receptor Tyrosine Kinase
Human EGF receptor tyrosine kinase was isolated from A431 epidermoid carcinoma cells by the following methods. Cells were grown in roller bottles in 50% Delbuco's Modified Eagle and 50% HAM F-12 nutrient media (Gibco) containing 10% fetal calf serum. Approximately 10^9 cells were lysed in two volumes of buffer containing 20 mM 2-(4N-[2-hydroxyethyl]piperazin-1-yl)ethanesulfonic acid, pH 7.4, 5 mM ethylene glycol bis(2-aminoethyl ether)N,N,N',N'-tetraacetic acid, 1% Triton X-100, 10% glycerol, 0.1 mM sodium orthovanadate, 5 mM sodium fluoride, 4 mM pyrophosphate, 4 mM benzamide, 1 mM dithiothreitol, 80 μg/mL aprotinin, 40 μg/mL leupeptin, and 1 mM phenylmethylsulfonyl fluoride. After centrifugation at 25,000×g for 10 minutes, the supernatant was equilibrated for 2 hours at 4° C. with 10 mL of wheat germ agglutinin sepharose that was previously equilibrated with 50 mM Hepes, 10% glycerol, 0.1% Triton X-100 and 150 mM NaCl, pH 7.5, (equilibration buffer). Contaminating proteins were washed from the resin with 1M NaCl in equilibration buffer, and the enzyme was eluted with 0.5M N-acetyl-1-D-glucosamine in equilibration buffer.
Determination of IC50 Values
The reaction was terminated by the addition of 2 mL of 75 mM phosphoric acid and passed through a 2.5-cm phosphocellulose filter disc to bind the peptide. The filter was washed five times with 75 mM phosphoric acid and placed in a vial along with 5 mL of scintillation fluid (Ready gel Beckman).

[8] = test system: V-src kinase; experiment: V-src kinase assay; type: biochemical; settings: at 50 μM
Method: V-src and C-src Kinase Assays
V-src or C-src kinase is purified from baculovirus infected insect cell lysates using an antipeptide monoclonal antibody directed against the N-terminal 2-17 amino acids. The antibody, covalently linked to 0.65-μm latex beads, is added to a suspension of insect cell lysis buffer comprised of 150 mM NaCl, 50 mM Tris pH 7.5, 1 mM DTT, 1% NP-40, 2 mM EGTA, 1 mM sodium vanadate, 1 mM PMSF, 1 μg/mL each of leupeptin, pepstatin, and aprotinin. Insect cell lysate containing either the c-src or v-src protein is incubated with these beads for 3-4 hours at 4° C. with rotation. At the end of the lysate incubation, the beads are rinsed 3 times in lysis buffer, resuspended in lysis buffer containing 10% glycerol, and frozen. These latex beads are thawed, rinsed three times in assay buffer which is comprised of 40 mM tris pH 7.5, 5 mM MgCl2, and suspended in the same buffer. In a Millipore 96-well plate with a 0.65 μm polyvinylidine membrane bottom are added the reaction components: 10-μL v-src or c-src beads, 10 μL of 2.5 mg/mL poly GluTyr substrate, 5 μM ATP containing 0.2 μCi labeled ^32 P-ATP, 5μL DMSO containing inhibitors or as a solvent control, and buffer to make the final volume 125 μL. The reaction is started at room temperature by addition of the ATP and quenched 10 minutes later by the addition of 125 μL of 30% TCA, 0.1M sodium pyrophosphate for 5 minutes on ice. The plate is then filtered and the wells washed with two 250-μL aliquots of 15% TCA, 0.1M pyrophosphate. The filters are punched, counted in a liquid scintillation counter, and the data examined for inhibitory activity in comparison to a known inhibitor such as erbstatin. The method is described more fully in J. Med. Chem., 37:598-609 (1994).

T3 sequence (P12931 whole entry): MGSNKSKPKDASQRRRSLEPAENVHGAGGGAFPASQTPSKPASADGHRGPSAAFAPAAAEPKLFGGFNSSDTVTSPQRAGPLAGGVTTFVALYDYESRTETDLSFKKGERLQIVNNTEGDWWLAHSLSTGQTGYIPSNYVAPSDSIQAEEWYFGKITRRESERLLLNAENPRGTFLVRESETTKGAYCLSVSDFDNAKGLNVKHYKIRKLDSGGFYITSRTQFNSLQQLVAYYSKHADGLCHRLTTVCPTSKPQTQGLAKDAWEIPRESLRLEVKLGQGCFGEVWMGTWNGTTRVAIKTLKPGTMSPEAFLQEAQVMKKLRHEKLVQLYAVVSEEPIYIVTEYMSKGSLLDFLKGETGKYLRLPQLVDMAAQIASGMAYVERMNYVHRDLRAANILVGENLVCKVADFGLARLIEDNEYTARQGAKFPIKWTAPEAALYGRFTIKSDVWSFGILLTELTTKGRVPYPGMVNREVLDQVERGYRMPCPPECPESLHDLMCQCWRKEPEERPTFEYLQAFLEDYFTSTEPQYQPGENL
T2 sequence (P05622 599-961 limits assumed): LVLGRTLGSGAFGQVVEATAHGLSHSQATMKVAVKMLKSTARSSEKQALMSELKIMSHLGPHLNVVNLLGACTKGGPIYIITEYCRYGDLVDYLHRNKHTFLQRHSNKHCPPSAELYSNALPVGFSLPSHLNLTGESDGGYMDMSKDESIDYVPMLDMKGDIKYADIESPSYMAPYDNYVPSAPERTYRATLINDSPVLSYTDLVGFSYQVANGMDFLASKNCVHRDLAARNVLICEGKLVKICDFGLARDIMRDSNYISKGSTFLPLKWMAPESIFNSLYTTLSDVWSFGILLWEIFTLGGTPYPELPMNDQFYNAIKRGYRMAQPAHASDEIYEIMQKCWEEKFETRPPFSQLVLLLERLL
T1 sequence (P11362 478-767 limits assumed): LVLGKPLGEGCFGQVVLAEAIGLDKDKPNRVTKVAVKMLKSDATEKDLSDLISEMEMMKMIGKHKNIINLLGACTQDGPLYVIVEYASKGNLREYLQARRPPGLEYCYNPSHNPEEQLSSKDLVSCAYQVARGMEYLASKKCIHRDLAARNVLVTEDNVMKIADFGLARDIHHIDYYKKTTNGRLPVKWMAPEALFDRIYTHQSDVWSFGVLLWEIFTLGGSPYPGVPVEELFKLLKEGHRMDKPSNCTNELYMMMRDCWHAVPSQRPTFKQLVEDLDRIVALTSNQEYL
T4 sequence (P00533 25-1210): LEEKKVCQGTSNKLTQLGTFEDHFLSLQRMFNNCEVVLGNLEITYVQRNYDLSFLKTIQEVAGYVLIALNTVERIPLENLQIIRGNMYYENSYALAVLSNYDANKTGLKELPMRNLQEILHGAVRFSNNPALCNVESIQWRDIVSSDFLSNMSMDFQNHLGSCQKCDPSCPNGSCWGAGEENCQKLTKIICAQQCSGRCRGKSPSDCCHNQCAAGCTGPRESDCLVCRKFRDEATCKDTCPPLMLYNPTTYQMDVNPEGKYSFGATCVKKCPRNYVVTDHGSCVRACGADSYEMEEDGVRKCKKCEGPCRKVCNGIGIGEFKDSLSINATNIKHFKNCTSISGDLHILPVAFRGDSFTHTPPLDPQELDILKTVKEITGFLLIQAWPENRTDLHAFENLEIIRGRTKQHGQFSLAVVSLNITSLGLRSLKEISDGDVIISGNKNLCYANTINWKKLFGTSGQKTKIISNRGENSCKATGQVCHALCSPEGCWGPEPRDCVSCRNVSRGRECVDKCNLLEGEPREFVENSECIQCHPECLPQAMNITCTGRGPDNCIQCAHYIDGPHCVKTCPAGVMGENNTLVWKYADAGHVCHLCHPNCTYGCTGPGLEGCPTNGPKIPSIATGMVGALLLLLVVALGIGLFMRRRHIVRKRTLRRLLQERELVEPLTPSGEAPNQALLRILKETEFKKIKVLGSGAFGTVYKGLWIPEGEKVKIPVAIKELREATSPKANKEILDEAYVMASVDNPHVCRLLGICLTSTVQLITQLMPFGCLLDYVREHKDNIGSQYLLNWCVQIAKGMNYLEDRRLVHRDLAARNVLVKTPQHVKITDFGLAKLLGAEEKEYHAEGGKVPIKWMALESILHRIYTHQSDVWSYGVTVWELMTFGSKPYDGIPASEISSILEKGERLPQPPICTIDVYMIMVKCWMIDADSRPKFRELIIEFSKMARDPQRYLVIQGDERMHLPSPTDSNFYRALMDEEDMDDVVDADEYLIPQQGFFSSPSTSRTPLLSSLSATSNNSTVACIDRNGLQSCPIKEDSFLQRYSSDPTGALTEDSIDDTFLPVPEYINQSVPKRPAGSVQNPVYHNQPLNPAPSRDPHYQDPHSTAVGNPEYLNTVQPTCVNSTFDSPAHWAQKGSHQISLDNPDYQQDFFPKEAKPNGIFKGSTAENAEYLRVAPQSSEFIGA

SMILES	IC50 [1] [nM]	IC50 [2] [nM]	IC50 [3] [nM]	activity against Streptococcus pneumoniae [4]	IC50 [5] [nM]	IC50 ([6]; FGF stimulated) [nM]	IC50 ([6]; PDGF stimulated) [nM]	IC50 [7] [nM]	Inhibition of Protein Tyrosine Kinases, V-src, % Inhibition [8] [%]
CCCCNc1nc2nc(N)ncc2cc1-c1ccccc1 [Example 9, N^7 -Butyl-6-phenyl-pyrido[2,3-d]pyrimidine-2,7-diamine]	10600	25100	18300	exhibited activity	–	–	–	–	–
CN1CCN(CCCNc2ncc3cc(-c4c(Cl)cccc4Cl)c(NC(=O)NC(C)(C)C)nc3n2)CC1 [Example 52, 1-tert-Butyl-3-{6-(2,6-dichlorophenyl)-2-[3-(4-methyl-piperazin-1-yl)-propylamino]-pyrido[2,3-d]pyrimidin-7-yl}-urea]	–	–	–	–	241	400	450	–	–
Nc1cc2nc(N)c(-c3c(Cl)cccc3Cl)cc2cn1 [Example 18, 3-(2,6-Dichlorophenyl)-[1,6]-naphthyridine-2,7-diamine]	1190	21300	514	exhibited activity	–	–	–	18200	21.4
CCNC(=O)Nc1nc2nc(NCCCCN(CC)CC)ncc2cc1-c1c(Cl)cccc1Cl [Example 124, 1-[6-(2,6-Dichlorophenyl)-2-(4-diethylamino-butyl-amino)-pyrido[2,3-d]pyrimidin-7-yl]-3-ethyl-urea]	–	–	–	–	245	930	550	–	–
CC(C)(C)NC(=O)Nc1nc2nc(N)ncc2cc1-c1c(Cl)cccc1Cl [Example 3, 1-[2-Amino-6-(2,6-dichlorophenyl)-pyrido[2,3-d]pyrimidin-7-yl]-3-tert-butylurea]	140	1250	–	–	970	900	2700	–	46.8
CCN(CC)CCCCNc1ncc2cc(-c3c(Cl)cccc3Cl)c(NC(=O)NC(C)(C)C)nc2n1 [Example 123, 1-tert-Butyl-3-[6-(2,6-dichlorophenyl)-2-(4-diethyl-amino-butylamino)-pyrido[2,3-d]pyrimidin-7-yl]-urea]	–	–	29	–	296	320	< 300	–	–
